Experiment in all cases: NCI-60 cell line screen, 48 h
Assay [1] has as its system A498.
Assay [2] has as its system CCRF-CEM.
For assay [3], the system named is COLO 205.
The subject of assay [4] is DU-145.
The subject of assay [5] is HCT-15.
Assay [6] has as its system IGROV-1.
Assay [7] relates to K562.
Assay [8] concerns KM12.
In assay [9] the test system is MDA-N.
The subject of assay [10] is MOLT-4.
For assay [11], the system named is NCI-H226.
Assay [12] concerns NCI-H23.
Assay [13] has as its system NCI-H522.
Assay [14] deals with OVCAR-3.
The test system of assay [15] is SF-268.
Assay [16] relates to SF-295.
Assay [17] relates to SF-539.
For assay [18], the system named is SK-OV-3.
Assay [19] has as its system SNB-75.
Assay [20] concerns SR.

Data on ten compounds can be found in ChEMBL document CHEMBL1201862, “PubChem BioAssay data set” (2004).

Molecules are shown by their SMILES.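 Growth conditions: 96-well plates. Treatment: test compound, 48 hours, 5 concentrations. Analysis: linear interpolation between bracketing concentrations; unreached endpoints set to highest concentration. Here, GI50 denotes the concentration required for 50% inhibition of growth.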 Calls of active or inactive are those of the source. No stated cut-off is given here; in the data, active = GI50 up to about 1.1 µM and inactive = higher. Some results are limits rather than exact numbers.

As to `CCOC(=O)C(NS(=O)(=O)c1ccccc1)(C(F)(F)F)P(=O)(OCC(C)C)OCC(C)C` (stereo not given), the GI50 is > 100 µM (inactive) in [1]; > 100 µM (inactive) in assay [2]; > 100 µM (inactive) in [3]; > 100 µM (inactive) in assay [4]; > 100 µM in assay [5]; > 100 µM (inactive) in assay [6]. The GI50 in [7], in assay [8], in [9], in assay [10], in assay [11] and in [12] was > 100 µM (inactive) each time. Further, the GI50 in assay [13], in assay [14], in [15], in [16], in [17] and in assay [18] was > 100 µM (inactive) in each case. Moreover, the GI50 in [19] and in assay [20] was > 100 µM (inactive) throughout.

Take `O=C(/C=C/c1ccccc1)CCN1CCOCC1`: the GI50 was 19 µM (inactive) in [1]; 1.82 µM (inactive) in assay [2]; 8.3 µM (inactive) in assay [3]; 18.8 µM (inactive) in assay [4]; 8.57 µM in assay [5]; 15.7 µM (inactive) in assay [6]. Besides, the GI50 in [7] was 2.15 µM (inactive); in [8], 7.52 µM (inactive); in assay [9] it was 14.2 µM (inactive); in [10] it was 4.28 µM (inactive); in [11], 20.8 µM (inactive); in [12], 16.2 µM (inactive). Besides, the GI50 is 3.87 µM (inactive) in assay [13]; 14.3 µM (inactive) in [14]; 12 µM (inactive) in assay [15]; 19 µM (inactive) in [16]; 12.1 µM (inactive) in assay [17]; 24.1 µM (inactive) in assay [18]. Further, the GI50 in assay [19] is 23.4 µM (inactive); in [20] it was 2.06 µM (inactive).

Consider `O=C1Cc2c(-c3ccccc3)cc(-c3ccc(Cl)cc3)nc2-c2ccccc2N1`, for which the GI50 in assay [1] was 1.75 µM (inactive); in [2] it was 5.97 µM (inactive); in assay [3], 2.96 µM (inactive); in assay [4], 16.7 µM (inactive); in assay [5], 6.68 µM; in assay [6] it was 4.62 µM (inactive). The GI50 was 19 µM (inactive) in [7]; 7.89 µM (inactive) in assay [8]; 6.9 µM (inactive) in assay [9]; 7.8 µM (inactive) in assay [10]; 3.07 µM (inactive) in assay [11]; 4.03 µM (inactive) in assay [12]. The GI50 is 2.18 µM (inactive) in assay [13]; 8.73 µM (inactive) in assay [14]; 4.85 µM (inactive) in assay [15]; 5.89 µM (inactive) in assay [16]; 5.83 µM (inactive) in assay [17]; 2.39 µM (inactive) in assay [18]. For the same compound, the GI50 in assay [19] was 2.03 µM (inactive); in [20], 10 µM (inactive).

Consider `C=C(C)C(=O)OC1C[C@H](COC(C)=O)C2CC=C(C)C2C2OC(=O)C(=C)[C@H]12` (stereo not given in full), for which the GI50 was 14.3 µM (inactive) in [1]; 1.64 µM (inactive) in [2]; 2.54 µM (inactive) in assay [3]; 6.19 µM (inactive) in assay [4]; 1.91 µM in [5]; 11.7 µM (inactive) in assay [6]. The GI50 is 1.87 µM (inactive) in [7]; 11.7 µM (inactive) in assay [8]; 3.66 µM (inactive) in [9]; 1.72 µM (inactive) in assay [10]; 17.3 µM (inactive) in assay [11]; 4.26 µM (inactive) in assay [12]. Besides, the GI50 in assay [13] is 1.45 µM (inactive); in assay [14] it was 2.19 µM (inactive); in assay [15], 2.4 µM (inactive); in assay [16] it was 17.1 µM (inactive); in [17] it was 4.59 µM (inactive); in [18] it was 17.2 µM (inactive). Moreover, the GI50 is 10.8 µM (inactive) in assay [19] and 2.06 µM (inactive) in assay [20].

Turning to `COc1ccc(/C=C2\C[C@H]3[C@@H]4CC=C5C[C@@H](OC(C)=O)CC[C@]5(C)[C@H]4CC[C@]3(C)\C2=N\O)cc1OC`, the GI50 in assay [1] is 19.3 µM (inactive); in assay [2] it was 7.5 µM (inactive); in assay [3], 8.77 µM (inactive); in assay [4] it was 39.4 µM (inactive); in assay [5] it was 9.44 µM; in assay [6], 53.3 µM (inactive). Besides, the GI50 in assay [7] was 5.19 µM (inactive); in assay [8], 9.27 µM (inactive); in assay [9] it was 10.4 µM (inactive); in assay [10] it was 3.6 µM (inactive); in assay [11], 9.2 µM (inactive); in assay [12], 29.2 µM (inactive). The GI50 is 21.6 µM (inactive) in assay [13]; 24.3 µM (inactive) in [14]; > 100 µM (inactive) in assay [15]; 6.65 µM (inactive) in assay [16]; 31 µM (inactive) in assay [17]; 68.1 µM (inactive) in [18]. For the same compound, the figures for the GI50 in assay [19] and in assay [20] were > 100 µM (inactive) and 9.33 µM (inactive), respectively.

`C/C(=N\NC(=[Se])N(C)C)c1ccccn1`: the GI50 in assay [1] was 0.4 µM (active); in [2], < 0.01 µM (active); in assay [3] it was < 0.01 µM (active); in assay [4], 1.41 µM (inactive); in assay [5] it was 0.0352 µM; in assay [6], < 0.01 µM (active). For the same compound, the GI50 in assay [7] is < 0.01 µM (active); in assay [8] it was 0.0234 µM (active); in assay [9], 1.89 µM (inactive); in assay [10], < 0.01 µM (active); in assay [11], 0.0973 µM (active); in assay [12] it was < 0.01 µM (active). The GI50 in assay [13] was 0.0497 µM (active); in [14], 0.106 µM (active); in assay [15], 0.216 µM (active); in assay [16] it was < 0.01 µM (active); in assay [17] it was 0.577 µM (active); in assay [18] it was 0.0216 µM (active). The GI50 was 0.462 µM (active) in assay [19] and < 0.01 µM (active) in [20].

In the case of `O=C1Sc2ccc(Br)cc2C(=O)Sc2ccccc21`, the GI50 in assay [1] is 20.9 µM (inactive); in assay [2], 2.48 µM (inactive); in assay [3], 13.2 µM (inactive); in assay [4] it was 11.8 µM (inactive); in [5], 15.7 µM; in [6], 14.2 µM (inactive). Besides, the GI50 in assay [7] was 12.8 µM (inactive); in assay [8], 16 µM (inactive); in assay [9], 8.17 µM (inactive); in [10] it was 4.34 µM (inactive); in assay [11] it was 18.5 µM (inactive); in assay [12] it was 15.7 µM (inactive). The GI50 in assay [13] was 4.84 µM (inactive); in [14] it was 12.5 µM (inactive); in [15], 7.08 µM (inactive); in assay [16], 22.4 µM (inactive); in [17], 11.6 µM (inactive); in assay [18] it was 27.4 µM (inactive). Besides, the GI50 in assay [19] is 12.5 µM (inactive); in assay [20] it was 1.06 µM (active).

As to `CC(=O)[C@@]1(O)CC[C@H]2[C@@H]3C[C@H](C)C4=CC(=O)C=C[C@]4(C)[C@@]3(F)[C@@H](O)C[C@@]21C` [FLUOROMETHOLONE], the GI50 in [1] was > 100 µM (inactive); in [2] it was 1.8 µM (inactive); in assay [3] it was > 100 µM (inactive); in assay [4], > 51.4 µM (inactive); in assay [5], > 100 µM; in assay [6], > 100 µM (inactive). Moreover, the GI50 is > 100 µM (inactive) in [7]; > 100 µM (inactive) in assay [8]; > 100 µM (inactive) in assay [9]; > 100 µM (inactive) in assay [10]; > 11.3 µM (inactive) in assay [11]; > 100 µM (inactive) in assay [12]. Moreover, the GI50 in assay [13] was > 93.3 µM (inactive); in assay [14] it was > 100 µM (inactive); in [15] it was > 95.1 µM (inactive); in [16], > 100 µM (inactive); in assay [17], > 87.3 µM (inactive); in assay [18], > 100 µM (inactive). Also, the GI50 in assay [19] was 69.5 µM (inactive); in assay [20], > 100 µM (inactive).

With `CN(C)/C=N/n1c2ccccc2c2ccccc21`, the GI50 in assay [1] is 26.4 µM (inactive); in assay [2], > 100 µM (inactive); in [3], 83.6 µM (inactive); in [4] it was > 100 µM (inactive); in [5] it was > 100 µM; in [6], > 100 µM (inactive). The GI50 in assay [7] was > 100 µM (inactive); in assay [8], > 100 µM (inactive); in [9], > 100 µM (inactive); in [10], 69.8 µM (inactive); in assay [11], > 100 µM (inactive); in [12], > 100 µM (inactive). For the same compound, the GI50 in assay [13], in assay [14], in assay [15], in assay [16], in assay [17] and in assay [18] was > 100 µM (inactive) each time. The GI50 was 71.1 µM (inactive) in assay [19] and > 100 µM (inactive) in assay [20].

For `CN(C)c1ccc(C2CC(c3ccc4ccccc4c3O)=NN2)cc1` (stereo not given), the GI50 in assay [1] was 22.4 µM (inactive); in assay [2] it was 17.9 µM (inactive); in [3], 19.5 µM (inactive); in assay [4], 50.4 µM (inactive); in [5], 44 µM; in assay [6], 24.9 µM (inactive). For the same compound, the GI50 in assay [7] was 25.5 µM (inactive); in assay [8] it was 39.5 µM (inactive); in [9] it was 26.5 µM (inactive); in assay [10], 20.3 µM (inactive); in assay [11], 41.5 µM (inactive); in assay [12] it was 34.5 µM (inactive). Moreover, the GI50 was 22.2 µM (inactive) in [13]; 18 µM (inactive) in assay [14]; 32.5 µM (inactive) in assay [15]; 31.6 µM (inactive) in assay [16]; 24.5 µM (inactive) in assay [17]; 48.5 µM (inactive) in assay [18]. The results for the GI50 in assay [19] and in assay [20] were 37 µM (inactive) and 14.1 µM (inactive), respectively.
